Assay results reported in patent publication US11484558B2, “Epizootic hemorrhagic disease virus—tel aviv university (EHDV-TAU)—oncolytic virus for treating cancer” (Ramot at Tel-Aviv University Ltd., priority 2017, dated 2022).

Legend:
LNCaP cells [1] = assay: Preliminary experiments, toxicity of TSA to LNCaP cells; type: cell-based, human; details: longer incubation periods (84 to 96 hours)
LNCaP cells [2] = assay: SILAC proteome analysis of LNCaP cells; details: IL-6 5 ng/ml for 16 hours
LNCaP-JAK1 cells [3] = assay: Cell cycle analysis (sub-G1, PI, FACS) of LNCaP-JAK1 cells; type: cell-based, human; details: LNCaP-JAK1, IL-6 treatment
Protocol: RPMI (supplemented with 10% FCS, 10 ml) was added post-fixation, after which cells were pelleted, washed twice with cold PBS and re-suspended in PBS supplemented with RNase A (20 μg/ml, 30 minutes). Following additional pelleting, cells were re-suspended in Propidium Iodide (P1) solution (50 μg/ml in PBS) and analyzed by FACS (Becton Dickinson).

LNCaP-JAK1 cells [4] = assay: SILAC proteome analysis of LNCaP-JAK1 cells; details: for number of ISGs upregulated (of 50 ISGs): LNCaP-JAK1, cytokine treatment alone
Protocol: Stable Isotope Labeling by Amino Acids Analysis (S/LAC)—LNCaP and LNCaP-JAK1 cells were grown in RPMI devoid of lysine and arginine (Thermo, Cat. #A2494401), supplemented with 10% dialyzed FCS (Biological Industries, cat. #04-011-1A) and antibiotics for ten cell divisions (^˜3 weeks). “Heavy” culture medium was supplemented with ^13C6^15N2-lysine (146 mg/ml, cat. #CNLM-291-H) and ^13C6^15N4-arginine (84 mg/ml cat. #CNLM-539-H) both from Cambridge Isotope Laboratories. “Light” labeled culture medium was supplemented with unmodified lysine and arginine at the same concentrations. To avoid potential bias in the analysis, in any given condition, cultures were labeled with heavy (H) or light (L) amino acids; or with the reciprocal labeling. Each H-L pair was repeated twice. Thus, quantification of each condition was based on four independent replicates. Labeled cells, either treated or untreated, were trypsinized, counted, and washed twice in cold PBS. Samples were digested by trypsin and analyzed by Liquid chromatography tandem-mass spectrometry (LC-MS/MS) on Q Exactive hybrid quadrupole-Orbitrap mass spectrometer (Thermo Scientific). The data were analyzed and quantified with MaxQuant 1.5.2.8, using the human Uniprot database. Proteins were identified with false discovery rate (FDR)<0.01.

LNCaP cells [5] = assay: Immunofluorescence of NS3-positive infected LNCaP cells with or without IFNα; type: cell-based, human; details: IFNα 200 U/ml for 45 hours
Protocol: (§1) Quantification of percentage NS3 positive cells was from multiple (n=5) randomly selected fields, imaged under the same conditions as in FIG. 4D; *p<0.05.
(§2) Immunofluorescence—DU145 or LNCaP cells were seeded (5×10^4 cells/well) onto glass coverslips placed in a 24-well plate, and were infected, or not, with EHDV-TAU-LNCaP, in the presence or absence of IFNα. At 44 hours post infection (hpi) or 2 hours (for IFNα treatment), cells were washed twice with cold PBS (4° C.), fixed (4% paraformaldehyde for 20 minutes), blocked and permeabilized (PBS 1%/BSA 0.1%/Triton 0.1% (PBS/BSA/T) for 30 minutes), and stained with polyclonal anti-NS3 (1:300 dilution in PBS/BSA/T). Alexa-488 or 555-conjugated goat-anti-rabbit antibodies (1:200 dilution in PBS/BSA/T) were used as secondary antibodies. In order to detect nuclear phosphorylated STAT1, cells were fixed (4% paraformaldehyde for 20 minutes) and permeabilized with ice-cold methanol (10 minutes at −20° C.). Cells were stained with Rabbit-anti phospho-Tyr701-STAT1 (1:100 dilution in PBS/BSA/T) for overnight at 4° C. Mounting was with Fluorescence Mounting Medium (Golden Bridge, Mukilteo, Wash., USA, cat. #E1818).

LNCaP-JAK1 cells [6] = assay: IFNα-induced pSTAT1 in LNCaP-JAK1 cells (immunoblot); type: cell-based, human; details: LNCaP-JAK1, 200 U/ml for 2 hours
LNCaP cells [7] = assay: IFNα-mediated STAT1 phosphorylation in LNCaP cells (immunoblot); type: cell-based, human
LNCaP-JAK1 cells [8] = type: cell-based, human
LNCaP-JAK1 cells [9] = assay: Trypan blue exclusion assay of LNCaP-JAK1 cells; type: cell-based, human
Protocol: Graph depicts mean±SE (n=5) of the percentage of trypan blue permeable cells with and without IFNα. **p<0.005.
Graph depicts mean±SE (n=10).**p<0.005; ns, non-significant.
In the presence of Q-VD-OPh (throughout pre-treatment and infection). **p<0.01.
The indicated cells were treated and infected as in FIG. 9B, and the percentage of dead cells was determined by trypan blue exclusion assay. Graph depicts mean±SE of the percentage of dead cells with and without IFNγ (n=3). **p<0.005; ns (non-significant).
Trypan blue exclusion assay—2×10^5 LNCaP cells/well in a 12-well plate were infected, or not, under the indicated experimental conditions. For each well, detached and attached cells were collected together and mixed with 0.5% trypan blue at a 1:1 ratio. Cells were classified by trypan blue exclusion by light microscopy. Trypan blue (0.5%) was from Beit Haemek Biological Industries, Israel (cat. #03-102-1B).

DU145 cells [10] = assay: IFNα-mediated STAT1 phosphorylation in DU145 cells (immunoblot); type: cell-based, human
LNCaP cells [11] = type: cell-based, human
DU145 cells [12] = assay: Virus-induced death of DU145 cells with IFN; type: cell-based, human; details: DU145, IFN alone
LNCaP-JAK1 cells [13] = assay: qRT-PCR of IFIT5 and IRF7 in LNCaP-JAK1 cells after IFNα; type: cell-based, human; details: LNCaP-JAK1, IFNα 200 U/ml for 24 hours
Protocol: The average expression level of untreated cells was taken as 1. *p<0.05.
qRT-PCR—Total RNA was extracted from cells using EZ-RNA kit (Biological Industries, Israel, cat. #20-400-100) according to the manufacturer's instructions. First-strand cDNA synthesis was performed using the iScript cDNA Synthesis Kit (Bio Rad cat. #1708890) according to the manufacturer's instructions, with additional no-RNA control. Real-Time PCR analyses of mRNA levels of the genes of interest, relative to GAPDH mRNA levels were performed in triplicates, using Fast SYBR-green master mix (Applied Biosystems, cat. #4385612) with StepOnePlus Real-Time PCR System (Applied Biosystems, cat. #4376600). Primers were designed to span exon-exon junctions and to produce 80-140 bp amplicons. Gene expression values were calculated based on the comparative threshold cycle method.

DU145 cells [14] = assay: Immunofluorescence of NS3-positive infected DU145 cells with or without IFNα; type: cell-based, human; details: DU145, IFNα 200 U/ml for 45 hours
Protocol: as §1, §2

LNCaP-JAK1 cells [15] = assay: Immunoblot of STAT1 and STAT3 phosphorylation after IFNγ in LNCaP-JAK1 cells; type: cell-based, human; details: LNCaP-JAK1, IFNγ 25 ng/ml for 20 minutes
Protocol: LNCaP and LNCaP-JAK1 cells were exposed to 25 ng/ml of IFNγ for 20 minutes.

Molecule: CC(/C=C/C(=O)NO)=C\[C@@H](C)C(=O)c1ccc(N(C)C)cc1 [TSA, trichostatin A]
- toxicity to LNCaP cells (LNCaP cells [1]): toxic

Molecule: IL-6: Human IL-6 (PeproTech), pleiotropic cytokine
- number of ISGs upregulated (of 50 ISGs) (LNCaP cells [2]): 3
- percentage of cells exhibiting sub-G1 DNA content (LNCaP-JAK1 cells [3]): slight increase
- number of ISGs upregulated (of 50 ISGs) (LNCaP-JAK1 cells [4]): 16

Molecule: IFNα
- effect of IFNα on EHDV-TAU-LNCaP infection (LNCaP cells [5]): negligible effects
- pSTAT1 levels upon IFNα stimulation (LNCaP-JAK1 cells [6]): dramatic increases in pSTAT1 levels
- pSTAT1 in response to IFNα (LNCaP cells [7]; 200 U/ml for 4 hours): only residual pSTAT1 levels
- increase in pSTAT1 levels (LNCaP cells [7]; 30 minutes post stimulation with 200 U/ml IFNα): 4.2±2.5 fold
- effect on production of infectious virions (LNCaP-JAK1 cells [8]): inhibited production of infectious virions
- effect on EHDV-TAU-LNCaP-induced cell death (LNCaP-JAK1 cells [9]; LNCaP-JAK1, IFNα 200 U/ml): protection from EHDV-TAU-LNCaP-induced cell death was observed
- STAT1 phosphorylation in response to IFNα (DU145 cells [10]; DU145, 200 U/ml for 4 hours): robust STAT1 phosphorylation
- increase in pSTAT1 levels (DU145 cells [10]; DU145, 30 minutes post stimulation with 200 U/ml IFNα): 18±11 fold
- activation of ISRE luciferase reporter (LNCaP cells [11]): 1.2±0.1 fold
- protection from virus-induced death (DU145 cells [12]): significantly protect
- expression of IFIT5 and IRF7 (LNCaP-JAK1 cells [13]): marked induction
- effect of IFNα on NS3 signal of EHDV-TAU-LNCaP-infected cultures (DU145 cells [14]): abrogated the NS3 signal
- number of ISGs upregulated (of 50 ISGs) (LNCaP-JAK1 cells [4]): 17
- enrichment of ISGs in IFNα-induced proteome changes (LNCaP-JAK1 cells [4]; LNCaP-JAK1 compared to parental LNCaP cells): 24.4%

Molecule: COC(=O)CC(NC(=O)C(NC(=O)c1ccc2ccccc2n1)C(C)C)C(=O)COc1c(F)cccc1F (stereo not shown) [Q-VD-OPh, Quinolyl-valyl-O-methylaspartyl-[-2,6-difluorophenoxy]-methyl ketone, reference compound]
- effect of caspase inhibition on death of infected cells (LNCaP-JAK1 cells [9]; LNCaP-JAK1, Q-VD-OPh 20 μM, regardless of the presence of IL-6): to basal levels

B1: IFNγ: human IFNγ (PeproTech) (protein, UniProt P01579 24-161, looked up)
Interferon gamma: QDPYVKEAENLKKYFNAGHSDVADNGTLFLGILKNWKEESDRKIMQSQIVSFYFKLFKNFKDDQSIQKSVETIKEDMNVKFFNSNKKKRDDFEKLTNYSVTDLNVQRKAIHELIQVMAELSPAAKTGKRKRSQMLFRG
- effect on death of infected cells (LNCaP-JAK1 cells [9]; LNCaP-JAK1, IFNγ 25 ng/ml): supported oncolysis by non-productive viral infection
- STAT activation (LNCaP-JAK1 cells [15]): activated STAT1 (but not STAT3)
- number of ISGs induced (LNCaP-JAK1 cells [4]; LNCaP-JAK1, IFNγ 25 ng/ml, 14 hours): 35
